Data published in patent US10426772B2, “Use of ergot alkaloids as an anthelmintic agent” (priority 2016, dated 2019).
Entries after “also recorded” stand apart in the source; their conditions may differ. Where two headings read alike, the source gives them in different places.

Tests used:
[1] = biological target: Sm.5HTR (Schistosoma mansoni, UniProt G4V5G4); format: cell-based; conditions: for activity at Sm.5HTR, in words: antagonist screen, FIG. 7
Method: (§1) HEK293 cells (ATCC CRL-1573.3) were cultured in DMEM supplemented with 10% fetal bovine serum (FBS), penicillin (100 units/mL), streptomycin (100 μg/mL), and L-glutamine (290 μg/mL). Cells were transiently transfected (ViaFect, Promega) as per the manufacturer's protocol at a density of 2×10^6 cells per T-25 cell-culture flask. Cells were transfected with plasmids encoding GloSensor (Promega) and either Sm.5HTR, (Smp_126730, GenBank accession number KF444051.1) or Sm.5HTRL (KX150867), both GPCRs being codon optimized for mammalian expression, or Hs.5HT7a (GenBank accession number NM_000872.4, R&D Systems) subcloned into pCS2(−). Cell culture reagents were from Invitrogen. Epitope tagged constructs were used to verify expression, and untagged constructs used for all luminescence assays.
(§2) For assays performed on adherent cells, HEK-293 cells were transferred one day post transfection to 96 well, solid white plates (Corning, cat #3917) coated with 0.01% poly-L-lysine (Sigma Aldrich) at a density of 5×10^4 cells/well in DMEM supplemented with 1% dialyzed FBS (Gibco). After overnight culture (37° C./5% CO2), media was decanted and replaced with 100 μL/well HBSS supplemented with 0.1% BSA, 20 mM HEPES (pH 7.4) and GloSensor™ reagent. Plates were allowed to equilibrate at room temperature for two hours prior to performing luminescence assays (GloMax-Multi Detection System plate reader, Promega). Conditions for individual assays were described as per figure legends. The standard assay to detect changes in cAMP utilized the F22 sensor in media supplemented with IBMX (200 μM). Ligands were added at a concentration of 20× per well for experiments (i.e., 5 μl of drug solution added to 100 μL of cells). […] For the resazurin reduction assay for cellular viability, cells were incubated with resazurin (final concentration, 10 μM) and tested ligands with fluorescence measurements (560 nm excitation/590 nm emission) made at 1.5 hours intervals.
(§3) The protocol for screening is shown schematically in FIG. 5A. HEK293 cells transiently transfected with either the human 5HT7 receptor (Hs.5HT7R) or the schistosome receptor (Sm.5HTR) were exposed to test ligands in a 96-well plate format. […] Luminescence was then read at a fixed time point (t=60 minutes, FIG. 5A). Hits were assigned as compounds that evoked a ≥50% decrease in luminescence output at the fixed time sampling point (FIG. 5B).

[2] = system: adult schistosomes; test: Egg laying assay, adult schistosome pairs in vitro; format: cell-based, Schistosoma mansoni; conditions: serotonin 100 μM, forskolin 100 μM, LSD 10 μM, nuciferine 10 μM, ergotamine 5 μM (FIG. 19F); eggs per worm pair/day over five days
Source text: Female Swiss Webster mice infected with S. mansoni cerceria (NMRI strain) were sacrificed 49 days post infection by CO2 euthanasia. Adult schistosomes were recovered by perfusion with a solution of 0.85% sodium chloride+0.75% sodium citrate and dissection of the mesenteric vasculature. Harvested schistosomes were washed in RPMI 1640 Medium with GlutaMAX+5% heat inactivated FBS (Gibco) and Penicillin-Streptomycin (final concentration 100 units/mL, ThermoFisher cat #15140122).
For egg laying assays, adult schistosomes were transferred to 24 well plates the day after harvesting from mice (5 worm pairs in 2 mL media per well). Eggs were counted under a stereomicroscope daily, after which worms were transferred to a new well with fresh drug containing media. Egg counts were recorded for five days, and data processed as the mean number of eggs laid per worm pair/day. Measurements of egg dimensions were quantified using the “analyze>measure” function in ImageJ to record the length and width of individual eggs.

[3] = biological target: Sm.5HTRL (Schistosoma mansoni, UniProt A0A173FEI8); test: GloSensor cAMP assay, HEK293 cells transiently transfected with Sm.5HTRL; format: cell-based; conditions: antagonists 10 μM; 5-HT EC80 dose 0.8 μM (FIG. 8)
Chain of Sm.5HTRL (A0A173FEI8 entry or part of it): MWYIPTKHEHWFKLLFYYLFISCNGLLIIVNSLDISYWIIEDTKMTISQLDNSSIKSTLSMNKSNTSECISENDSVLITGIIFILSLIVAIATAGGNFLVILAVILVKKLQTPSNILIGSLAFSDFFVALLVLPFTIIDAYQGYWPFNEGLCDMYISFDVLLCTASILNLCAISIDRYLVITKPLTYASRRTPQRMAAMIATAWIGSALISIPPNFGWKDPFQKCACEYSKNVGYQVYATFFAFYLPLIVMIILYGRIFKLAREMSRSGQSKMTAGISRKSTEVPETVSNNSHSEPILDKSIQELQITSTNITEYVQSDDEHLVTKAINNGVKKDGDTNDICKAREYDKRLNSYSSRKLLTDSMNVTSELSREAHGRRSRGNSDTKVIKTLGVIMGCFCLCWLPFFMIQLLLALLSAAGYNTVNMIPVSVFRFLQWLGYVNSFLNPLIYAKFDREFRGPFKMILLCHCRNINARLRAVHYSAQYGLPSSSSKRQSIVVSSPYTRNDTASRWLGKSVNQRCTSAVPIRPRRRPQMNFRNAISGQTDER
Method: as §1, §2

[4] = biological target: Sm.5HTR (Schistosoma mansoni, UniProt A0A173FEI8); test: cell-based; conditions: for antagonist activity at Sm.5HTR, in words: FIG. 18B
Chain of Sm.5HTR (Schistosoma mansoni, UniProt A0A173FEI8) (A0A173FEI8 entry or part of it): as above
Method: HEK293 cells (ATCC CRL-1573.3) were cultured in growth media consisting of DMEM supplemented with GlutaMAX (Gibco cat #10566016)+10% heat inactivated fetal bovine serum and penicillin-streptomycin (100 units/mL, ThermoFisher). Stable cell lines for the pGloSensor-22F cAMP Plasmid (Promega) and schistosome 5HTRs in pcDNA3.1(−) were selected with hygromycin (200 μg/mL) and G418 (400 μg/mL). The correct identity of each stably expressed sequence was verified by isolating total RNA from each stable line (TRIzol Reagent, Ambion) and amplifying the sequence of interest with gene specific primers flanking the 5′ and 3′ regions of the cds (SuperScript® III One-Step RT-PCR System, Invitrogen). PCR products were ligated into a TA cloning vector (pGEM-T Easy, Promega) and sequenced.
HEK293 lines stably expressing both the 22F cAMP sensor and Sm.5HTR were cultured in growth media supplemented with 10% dialyzed FRS. For cAMP assays in 96 well format, cells cultured in T-75 flasks were trypsinized (TrypLE Express, Gibco) and plated in solid white 96 well plates (Costar cat #3917) the day prior to assay at a density of 2.5×10^4 cells/well. The following day media was removed and replaced with assay buffer consisting of HBSS buffered with HEPES (20 mM, pH 7.4)+BSA (0.1% w/v) and D-luciferin sodium salt (1 mg/mL, Gold Biotechnology). Plates were equilibrated at room temperature for 1 hour, at which point 3-Isobutyl-1-methylxanthine (IBMX 200 μM, Sigma Aldrich) was added. Plates were equilibrated a further 30 minutes prior to test compound addition. […] Readings performed in 384 well format were modified so that cells were assayed in suspension. Cells were grown to 70% confluence in T-75 flasks, trypsinized and pelleted (300 RCF×5 minutes). Media was removed and cells were resuspended in 25 mL assay buffer supplemented with IBMX (200 μM). A 96 channel semi-automated pipet (Eppendorf epMotion 96) delivered 55 μL of cell suspension per well (5000 cells/well) into solid white 384 plates (Corning 3574).

[5] = biological target: T1, Hs.5HT7R (Homo sapiens, UniProt P34969); test: GloSensor cAMP assay, HEK293 cells transiently transfected with Hs.5HT7R; format: cell-based; conditions: FIG. 7
T1 construct: host or cells: HEK293 (ATCC CRL-1573.3), transient, pCS2(−), co-transfected with GloSensor
T1 sequence (P34969 1-445 isoform P34969-2): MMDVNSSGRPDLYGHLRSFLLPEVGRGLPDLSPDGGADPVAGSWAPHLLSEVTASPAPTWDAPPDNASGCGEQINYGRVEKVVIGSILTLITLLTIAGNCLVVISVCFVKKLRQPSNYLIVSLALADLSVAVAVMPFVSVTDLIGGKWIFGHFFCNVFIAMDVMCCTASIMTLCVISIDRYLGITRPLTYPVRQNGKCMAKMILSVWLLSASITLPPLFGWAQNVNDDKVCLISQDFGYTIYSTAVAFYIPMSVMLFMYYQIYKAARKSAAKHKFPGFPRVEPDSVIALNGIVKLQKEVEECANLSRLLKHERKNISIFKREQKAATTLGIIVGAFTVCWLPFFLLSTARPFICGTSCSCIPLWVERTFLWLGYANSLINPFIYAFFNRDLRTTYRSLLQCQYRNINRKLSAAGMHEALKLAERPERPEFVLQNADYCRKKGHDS
Method: as §1, §2, §3

[6] = antagonism of 5-HT evoked cAMP, FIGS. 7, 12, 13
[7] = HEK293, agonist read, 45 minutes, read-out: Sm.5HTR Emax

Chain of Sm.5HTR (Schistosoma mansoni, UniProt G4V5G4) (G4V5G4 entry or part of it): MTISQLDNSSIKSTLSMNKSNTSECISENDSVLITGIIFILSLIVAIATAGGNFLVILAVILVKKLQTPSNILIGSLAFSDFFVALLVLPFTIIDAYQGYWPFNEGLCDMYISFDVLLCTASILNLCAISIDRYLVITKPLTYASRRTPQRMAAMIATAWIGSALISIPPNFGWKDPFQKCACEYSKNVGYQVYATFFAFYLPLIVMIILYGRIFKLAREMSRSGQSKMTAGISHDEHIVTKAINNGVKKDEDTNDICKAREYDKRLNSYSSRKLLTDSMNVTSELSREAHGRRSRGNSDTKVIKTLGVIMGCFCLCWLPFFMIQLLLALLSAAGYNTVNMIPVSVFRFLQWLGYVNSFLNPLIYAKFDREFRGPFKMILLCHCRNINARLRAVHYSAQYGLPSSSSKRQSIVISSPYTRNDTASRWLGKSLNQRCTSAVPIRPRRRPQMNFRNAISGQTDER

## COc1cc2c(cc1OC)-c1cc3ccc(OC)c(OC)c3c[n+]1CC2 [palmatine]
[1]; [6]
  selectivity Sm.5HTR versus Hs.5HT7R (IC50 (Hs.5HT7R)/IC50 (Sm.5HTR)), in words: decreased potency and selectivity for Sm.5HTR

## CCN1CCCC1CNC(=O)c1cc(S(=O)(=O)CC)c(N)cc1OC (stereo not shown) [amisulpiride]
[1]
  activity at Sm.5HTR, in words: modest effects on Sm.5HTR

## C=C[C@@]1(C)CC(=O)[C@]2(O)[C@@]3(C)[C@@H](O)CCC(C)(C)[C@@H]3[C@H](O)[C@H](OC(C)=O)[C@@]2(C)O1 [forskolin]
[2]
  decrease of egg laying: 62%

## COc1cc2nc(N(C)CCCNC(=O)C3CCCO3)nc(N)c2cc1OC (stereo not shown) [alfuzosin]
[1]; [6]
  selectivity Sm.5HTR versus Hs.5HT7R (IC50 (Hs.5HT7R)/IC50 (Sm.5HTR)), in words: clear selectivity for Sm.5HTR
[3]
  inhibition of 5-HT evoked cAMP generation through Sm.5HTRL: inhibited 5-HT evoked cAMP generation through Sm.5HTRL

## CCN(CC)C(=O)N[C@H]1C[C@@H]2c3cccc4[nH]cc(c34)C[C@H]2N(C)C1 [terguride]
[4]; 5-HT 500 nM, read-out: Sm.5HTR IC50 (antagonist)
  IC50: 400 ± 50 nM
[4]; FIG. 18C
  agonist activity at Sm.5HTR, in words: completely eliminates agonist activity

## CCN(CC)C(=O)[C@@H]1C=C2c3cccc4[nH]cc(c34)C[C@H]2N(C)C1 [LSD, lysergic acid diethylamide]
[1]; >10 μM
  inhibition of 5-HT evoked cAMP generation at higher concentrations: almost complete inhibition
[1]; FIG. 10A
  agonist efficacy at Sm.5HTR, in words: no efficacy
[1]; antagonism of 5-HT evoked cAMP accumulation, FIG. 10F, read-out: affinity constants (KB), Schild regression analysis
  Kb: 629 nM
[1]; increasing doses of ligand, FIGS. 10B-D
  nature of antagonism: right-shift in the 5-HT dose-response relationship: competitive antagonism
[4]
  EC50: 250 ± 150 nM
[4]; HEK293, read-out: Sm.5HTR Emax
  Emax: 40 ± 26%
[2]
  decrease of egg laying: no effect

## CC(C)[C@@]1(NC(=O)[C@@H]2C[C@@H]3c4cccc5[nH]cc(c45)C[C@H]3N(C)C2)O[C@@]2(O)[C@@H]3CCCN3C(=O)[C@H](Cc3ccccc3)N2C1=O [dihydroergocristine]
[4]
  antagonist activity at Sm.5HTR, in words: is an antagonist
[4]; [7]
  Emax: 22 ± 2%

## CC(C)C[C@H]1C(=O)N2CCC[C@H]2[C@]2(O)O[C@](NC(=O)[C@@H]3C=C4c5cccc6[nH]cc(c56)C[C@H]4N(C)C3)(C(C)C)C(=O)N12 [α-ergocryptine]
[4]
  antagonist activity at Sm.5HTR, in words: loss of antagonist activity
[4]; agonist read, 45 minutes
  Sm.5HTR Emax: negligible activity

## O=S(=O)(c1ccccc1)c1cnc2c(N3CCNCC3)cccc2c1 [SB742457]
[1]
  activity at Sm.5HTR, in words: completely lacked activity at Sm.5HTR; also recorded: modest effects on Sm.5HTR
[5]
  inhibition of Hs.5HT7R, in words: potent inhibitors of Hs.5HT7R

## C[C@@H](CO)NC(=O)[C@@H]1C=C2c3cccc4[nH]cc(c34)C[C@H]2N(C)C1 [ergometrine]
[4]; [7]
  Emax: 61 ± 4%

## CC1CCN(CC[C@H]2CCCN2S(=O)(=O)c2cccc(O)c2)CC1 [SB269970]
[1]
  activity at Sm.5HTR, in words: modest effects on Sm.5HTR
[1]; listed as SB 269970
  activity at Sm.5HTR, in words: completely lacked activity at Sm.5HTR

## CN1C[C@H](C(=O)N[C@]2(C)O[C@@]3(O)[C@@H]4CCCN4C(=O)[C@H](Cc4ccccc4)N3C2=O)C[C@@H]2c3cccc4[nH]cc(c34)C[C@H]21 [dihydroergotamine]
[1]; FIG. 10A
  agonist efficacy at Sm.5HTR, in words: partial agonism
[1]; FIG. 10A, read-out: EC50, agonist activity at Sm.5HTR
  EC50: 315 nM
[4]; HEK293, read-out: Sm.5HTR Emax
  Emax: 103 ± 11%

## COc1cc2c3c(c1OC)-c1ccccc1C[C@H]3N(C)CC2 [nuciferine]
[2]
  decrease of egg laying: no effect

## COc1ccc2cc3[n+](cc2c1OC)CCc1cc2c(cc1-3)OCO2 [berberine]
[1]; [6]
  selectivity Sm.5HTR versus Hs.5HT7R (IC50 (Hs.5HT7R)/IC50 (Sm.5HTR)), in words: decreased potency and selectivity for Sm.5HTR

## CNCC[C@@H](Oc1ccccc1C)c1ccccc1 [atomoxetine]
[1]
  selectivity Sm.5HTR versus Hs.5HT7R (IC50 (Hs.5HT7R)/IC50 (Sm.5HTR)), in words: clear selectivity for Sm.5HTR; also recorded: preferential selectivity toward Sm.5HTR
[3]
  inhibition of 5-HT evoked cAMP generation through Sm.5HTRL: inhibited 5-HT evoked cAMP generation through Sm.5HTRL

## CNCCC(Oc1ccc(C(F)(F)F)cc1)c1ccccc1 (stereo not shown) [fluoxetine]
[1]
  selectivity Sm.5HTR versus Hs.5HT7R (IC50 (Hs.5HT7R)/IC50 (Sm.5HTR)), in words: preferential selectivity toward Sm.5HTR
